Reference: US20170042151A1, “SAFENED HERBICIDAL COMPOSITIONS COMPRISING PYRIDINE CARBOXYLIC ACIDS” (Dow AgroSciences LLC, priority 2015, published 2017)

How the values were obtained:
Type in all cases: in vivo
[1] = tested on: HORVS = Hordeum vulgare (spring barley); test: Greenhouse post-emergence phytotoxicity (% visual injury) on spring barley
Description: (§1) In addition, the efficacy of the herbicidal composition on wild mustard (SINAR), wild chamomile (MATCH), wild pansy (VIOTR), shepherd's purse ([…]), pigweed (AMARE), and Canada thistle (CIRAR) was evaluated. […] When required to ensure good germination and healthy plants, a fungicide treatment and/or other chemical or physical treatment was applied. The plants were grown for 7-36 days (d) in a greenhouse with an approximate 14-hour (h) photoperiod which was maintained at about 18° C. during the day and 17° C. during the night. Nutrients and water were added on a regular basis and supplemental lighting was provided with overhead metal halide 1000-Watt lamps as necessary. The plants were employed for testing when they reached the second or third true leaf stage. Weighed amounts of technical material were dissolved in a volume of 97:3 volume per volume (v/v) acetone/dimethyl sulfoxide (DMSO) to stock solutions. […] Stock solutions of the safeners were prepared following the same procedure. […] Control plants were sprayed in the same manner with the solvent blank. The treated plants and control plants were placed in a greenhouse as described above and watered by sub-irrigation to prevent wash-off of the test compounds. […] Colby's equation was used to determine the herbicidal effects expected from the mixtures.

[2] = tested on: TRZAW = Triticum aestivum (winter wheat); test: Greenhouse post-emergence phytotoxicity (% visual injury) on wheat
Description: as §1

[3] = tested on: MATCH = Matricaria recutita (wild chamomile); test: Greenhouse post-emergence efficacy (% visual injury) on wild chamomile; details: 20-22 d
Description: (§2) The herbicide of formula I-G-A was combined with isoxadifen-ethyl or mefenpyr-diethyl, and applied to spring wheat (TRZAS) and spring barley (HORVS) and the phytotoxicity of the herbicidal composition was measured. In addition, the efficacy of the herbicidal composition on wild mustard (SINAR), wild chamomile (MATCH), wild pansy (VIOTR), shepherd's purse (CAPBP), kochia (KCHSC), lambsquarters (CHEAL), pigweed (AMARE), and Canada thistle (CIRAR) was evaluated. The results for herbicide I-G-A with isoxadifen-ethyl and mefenpyr-diethyl are summarized in Table 7 and Table 8, respectively.
(§3) Seeds of the desired test plant species were planted in Sun Gro MetroMix® 360 planting mixture, which typically has a pH of 6.0 to 6.8 and an organic matter content of about 30 percent, in plastic pots with a surface area of 103.2 square centimeters (cm^2). When required to ensure good germination and healthy plants, a fungicide treatment and/or other chemical or physical treatment was applied. The plants were grown for 7-36 days (d) in a greenhouse with an approximate 14-hour (h) photoperiod which was maintained at about 18° C. during the day and 17° C. during the night. Nutrients and water were added on a regular basis and supplemental lighting was provided with overhead metal halide 1000-Watt lamps as necessary. The plants were employed for testing when they reached the second or third true leaf stage.
(§4) Weighed amounts of technical material were dissolved in a volume of 97:3 volume per volume (v/v) acetone/dimethyl sulfoxide (DMSO) to stock solutions. […] Compound requirements are based upon a 12 milliliter (mL) application volume at a rate of 187 liters per hectare (L/ha). Stock solutions of the safeners were prepared following the same procedure. Spray solutions of the safeners and experimental compound mixtures were prepared by adding the stock solutions to the appropriate amount of dilution solution to form a 12 mL spray solution in two-way combinations. Formulated compounds were applied to the plant material with an overhead Mandel track sprayer equipped with 8002E nozzles calibrated to deliver 187 L/ha over an application area of 0.503 square meters (m^2) at a spray height of 18 inches (43 centimeters (cm)) above average plant canopy. Control plants were sprayed in the same manner with the solvent blank.
(§5) The treated plants and control plants were placed in a greenhouse as described above and watered by sub-irrigation to prevent wash-off of the test compounds. After 20-22 d, the condition of the test plants as compared with that of the control plants was determined visually and scored on a scale of 0 to 100 percent where 0 corresponds to no injury and 100 corresponds to complete kill. Colby's equation was used to determine the herbicidal effects expected from the mixtures.

[4] = tested on: CAPBP = Capsella bursa-pastoris (shepherd's purse); test: Greenhouse post-emergence efficacy (% visual injury) on shepherd's purse; details: 20-22 d
Description: as §2, §3, §4, §5

[5] = tested on: VIOTR = Viola tricolor (wild pansy); test: Greenhouse post-emergence efficacy (% visual injury) on wild pansy; details: 20-22 d
Description: as §2, §3, §4, §5

[6] = tested on: CIRAR = Cirsium arvense (Canada thistle); test: Greenhouse post-emergence efficacy (% visual injury) on Canada thistle; details: 20-22 d
Description: as §2, §3, §4, §5

[7] = tested on: AMARE = Amaranthus retroflexus (pigweed); test: Greenhouse post-emergence efficacy (% visual injury) on pigweed; details: 20-22 d
Description: as §2, §3, §4, §5

[8] = tested on: SINAR = Sinapis arvensis (wild mustard); test: Greenhouse post-emergence efficacy (% visual injury) on wild mustard; details: 20-22 d
Description: as §2, §3, §4, §5

[9] = tested on: KCHSC = Kochia scoparia (kochia); test: Greenhouse post-emergence efficacy (% visual injury) on kochia; details: 20-22 d
Description: as §2, §3, §4, §5

[10] = tested on: CHEAL = Chenopodium album (lambsquarters); test: Greenhouse post-emergence efficacy (% visual injury) on lambsquarters; details: 20-22 d
Description: as §2, §3, §4, §5

[11] = safener 20 g ai/ha alone, 20-22 d
[12] = safener 40 g ai/ha alone, 20-22 d
[13] = safener 80 g ai/ha alone, 20-22 d
[14] = herbicide 20 g ae/ha alone, 20-22 d

Compound: CC1COc2ccccc2N1C(=O)C(Cl)Cl (racemic) [benoxacor, (±)-4-(dichloroacetyl)-3,4-dihydro-3-methyl-2H-1,4-benzoxazine]
- Effect (% visual injury) HORVS Obs ([1]; in vivo): 0%
- Effect (% visual injury) TRZAW Obs ([2]; in vivo): 0%

Compound: CCOC(=O)C1=NN(c2ccc(Cl)cc2Cl)C(C)(C(=O)OCC)C1 (racemic) [mefenpyr-diethyl, (RS)-1-(2,4-dichlorophenyl)-5-methyl-2-pyrazoline-3,5-dicarboxylate]
- Effect (% visual injury) MATCH Obs ([3]; safener 20 g ai/ha alone): 0%
- Effect (% visual injury) MATCH Obs ([3]; safener 40 g ai/ha alone): 0%
- Effect (% visual injury) MATCH Obs ([3]; safener 80 g ai/ha alone): 0%
- Effect (% visual injury) CAPBP Obs ([4]; safener 20 g ai/ha alone): 0%
- Effect (% visual injury) CAPBP Obs ([4]; safener 40 g ai/ha alone): 0%
- Effect (% visual injury) CAPBP Obs ([4]; safener 80 g ai/ha alone): 0%
- Effect (% visual injury) VIOTR Obs ([5]; safener 20 g ai/ha alone): 0%
- Effect (% visual injury) VIOTR Obs ([5]; safener 40 g ai/ha alone): 0%
- Effect (% visual injury) VIOTR Obs ([5]; safener 80 g ai/ha alone): 0%
- Effect (% visual injury) CIRAR Obs ([6]; safener 20 g ai/ha alone): 0%
- Effect (% visual injury) CIRAR Obs ([6]; safener 40 g ai/ha alone): 0%
- Effect (% visual injury) CIRAR Obs ([6]; safener 80 g ai/ha alone): 0%
- Effect (% visual injury) HORVS Obs [1, 11]: 0%
- Effect (% visual injury) HORVS Obs [1, 12]: 0%
- Effect (% visual injury) HORVS Obs [1, 13]: 0%
- Effect (% visual injury) AMARE Obs ([7]; safener 20 g ai/ha alone): 0%
- Effect (% visual injury) AMARE Obs ([7]; safener 40 g ai/ha alone): 0%
- Effect (% visual injury) AMARE Obs ([7]; safener 80 g ai/ha alone): 0%
- Effect (% visual injury) TRZAW Obs [2, 11]: 0%
- Effect (% visual injury) TRZAW Obs [2, 12]: 0%
- Effect (% visual injury) TRZAW Obs [2, 13]: 0%
- Effect (% visual injury) SINAR Obs ([8]; safener 20 g ai/ha alone): 0%
- Effect (% visual injury) SINAR Obs ([8]; safener 40 g ai/ha alone): 0%
- Effect (% visual injury) SINAR Obs ([8]; safener 80 g ai/ha alone): 0%
- Effect (% visual injury) KCHSC Obs ([9]; safener 20 g ai/ha alone): 0%
- Effect (% visual injury) KCHSC Obs ([9]; safener 40 g ai/ha alone): 0%
- Effect (% visual injury) KCHSC Obs ([9]; safener 80 g ai/ha alone): 0%
- Effect (% visual injury) CHEAL Obs ([10]; safener 20 g ai/ha alone): 0%
- Effect (% visual injury) CHEAL Obs ([10]; safener 40 g ai/ha alone): 0%
- Effect (% visual injury) CHEAL Obs ([10]; safener 80 g ai/ha alone): 0%

Compound: NC(=O)NS(=O)(=O)c1ccccc1Cl [2-CBSU, N-(aminocarbonyl)-2-chlorobenzenesulfonamide]
- Effect (% visual injury) HORVS Obs ([1]; in vivo): 0%
- Effect (% visual injury) TRZAW Obs ([2]; in vivo): 0%

Compound: CCc1nc(C(=O)O)c(Cl)c(N)c1F [I-G-A]
- Effect (% visual injury) MATCH Obs ([3]; herbicide 20 g ae/ha alone): 80%
- Effect (% visual injury) CAPBP Obs ([4]; herbicide 20 g ae/ha alone): 100%
- Effect (% visual injury) VIOTR Obs ([5]; herbicide 20 g ae/ha alone): 60%
- Effect (% visual injury) CIRAR Obs ([6]; herbicide 20 g ae/ha alone): 80%
- Effect (% visual injury) HORVS Obs [1, 14]: 13%
- Effect (% visual injury) AMARE Obs ([7]; herbicide 20 g ae/ha alone): 20%
- Effect (% visual injury) TRZAW Obs [2, 14]: 25%
- Effect (% visual injury) SINAR Obs ([8]; herbicide 20 g ae/ha alone): 97%
- Effect (% visual injury) KCHSC Obs ([9]; herbicide 20 g ae/ha alone): 20%
- Effect (% visual injury) CHEAL Obs ([10]; herbicide 20 g ae/ha alone): 95%

Compound: C=CCN(CC=C)C(=O)C(Cl)Cl [dichlormid, N,N-diallyl-2,2-dichloroacetamide]
- Effect (% visual injury) HORVS Obs [1, 11]: 0%
- Effect (% visual injury) HORVS Obs [1, 12]: 0%
- Effect (% visual injury) HORVS Obs [1, 13]: 0%
- Effect (% visual injury) TRZAW Obs [2, 11]: 0%
- Effect (% visual injury) TRZAW Obs [2, 12]: 0%
- Effect (% visual injury) TRZAW Obs [2, 13]: 0%

Compound: O=C(O)c1nc(C(Cl)(Cl)Cl)n(-c2ccc(Cl)cc2Cl)n1 [fenchlorazole, 1-(2,4-dichlorophenyl)-5-(trichloromethyl)-1H-1,2,4-triazole-3-carboxylic acid]
- Effect (% visual injury) HORVS Obs [1, 11]: 0%
- Effect (% visual injury) HORVS Obs [1, 12]: 0%
- Effect (% visual injury) HORVS Obs [1, 13]: 0%
- Effect (% visual injury) TRZAW Obs [2, 11]: 0%
- Effect (% visual injury) TRZAW Obs [2, 12]: 0%
- Effect (% visual injury) TRZAW Obs [2, 13]: 0%

Compound: Clc1cc(Cl)nc(-c2ccccc2)n1 [fenclorim, 4,6-dichloro-2-phenylpyrimidine]
- Effect (% visual injury) HORVS Obs ([1]; in vivo): 0%
- Effect (% visual injury) TRZAW Obs ([2]; in vivo): 0%

Compound: O=C1OC(=O)c2cccc3cccc1c23 [naphthalic anhydride]
- Effect (% visual injury) HORVS Obs ([1]; in vivo): 0%
- Effect (% visual injury) TRZAW Obs ([2]; in vivo): 0%
